Like-named read-outs stand apart in the source and are kept apart here.
Molecular target: Recombinant human factor B (Homo sapiens (Human), UniProt P00751)
Experiment: Human Complement Factor B TR-FRET Assay
Type: binding
Details: * = assay behavior at and above the stated concentration prevented IC50 determination
Description: The time-gated decrease in fluorescence intensity related to the competition between labeled and unlabeled factor B ligands was recorded at both 620 nm and 665 nm, 70 μs after excitation at 337 nm using a microplate spectrofluorimeter.

[1] = displacement of labeled factor B ligand, read-out: hFactor-B TR-FRET Qualified IC50

Recombinant human factor B, sequence (P00751 26-764): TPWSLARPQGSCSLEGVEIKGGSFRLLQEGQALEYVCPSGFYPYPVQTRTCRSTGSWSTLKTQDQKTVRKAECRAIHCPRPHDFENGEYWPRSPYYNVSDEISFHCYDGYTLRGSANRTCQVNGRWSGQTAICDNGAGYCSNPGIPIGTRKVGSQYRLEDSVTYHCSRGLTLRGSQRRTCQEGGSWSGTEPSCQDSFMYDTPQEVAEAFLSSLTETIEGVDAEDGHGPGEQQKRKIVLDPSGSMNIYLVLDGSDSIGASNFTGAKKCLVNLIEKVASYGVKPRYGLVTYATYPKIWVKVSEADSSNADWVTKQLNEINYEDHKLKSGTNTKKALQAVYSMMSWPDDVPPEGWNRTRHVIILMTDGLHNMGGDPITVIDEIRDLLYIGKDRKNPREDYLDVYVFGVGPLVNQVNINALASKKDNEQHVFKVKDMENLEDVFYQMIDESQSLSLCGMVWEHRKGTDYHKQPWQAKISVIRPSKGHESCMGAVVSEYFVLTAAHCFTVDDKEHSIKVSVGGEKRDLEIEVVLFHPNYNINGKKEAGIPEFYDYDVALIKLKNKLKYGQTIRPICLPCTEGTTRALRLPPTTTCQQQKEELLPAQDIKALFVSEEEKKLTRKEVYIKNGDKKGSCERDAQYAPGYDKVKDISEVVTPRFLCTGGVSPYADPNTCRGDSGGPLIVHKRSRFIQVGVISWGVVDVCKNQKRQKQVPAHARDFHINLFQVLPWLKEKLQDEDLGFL

Compound | IC50 [1] | IC50 (hFactor-B TR-FRET Qualified IC50, displacement of labeled factor B ligand)
COc1cc(C)c2[nH]ccc2c1CN1CCC2(CC1c1ccc(C(=O)O)cc1)CC(C)(O)C2 (racemic) [Ex-13] | 29.4 nM | 
COc1cc(C)c2[nH]ccc2c1CN1CCC2(CC1c1ccc(C(=O)O)cc1)CC(C)(O)C2 (racemic) [Ex-16] | 434 nM | 
COc1cc(C)c2[nH]ccc2c1CN1CCC2(CC1c1ccccc1)CC(F)(F)C2 (racemic) [Ex-35] | 17.3 nM | 
COc1cc(C)c2[nH]ccc2c1CN1CCC2(CC1c1cnn(C)c1)CC(F)(F)C2 (racemic) [Ex-36] | 24.5 nM | 
COc1cc(C)c2[nH]ccc2c1CN1CCC2(CC1c1ccc(C(=O)O)cc1)CC(F)(F)C2 (racemic) [Ex-47] |  | 2.5 nM
Cc1cc(C2CC2)c(CN2CCC3(CC2c2ccc(C(C)(C)O)cc2)CC(F)(F)C3)c2cc[nH]c12 (racemic) [Ex-48] | 8.9 nM | 
Cc1cc(C2CC2)c(CN2CCC3(CC2c2ccc(C4(O)COC4)cc2)CC(F)(F)C3)c2cc[nH]c12 (racemic) [Ex-49, 3-(4-(7-((5-cyclopropyl-7-methyl-1H-indol-4-yl)methyl)-2,2-difluoro-7-azaspiro[3.5]nonan-6-yl)phenyl)oxetan-3-ol] | 5.6 nM | 
Cc1cc(C2CC2)c(CN2CCC3(CC2c2ccc(-n4cccn4)cc2)CC(F)(F)C3)c2cc[nH]c12 (racemic) [Ex-50] | 7 nM | 
Cc1cc(C2CC2)c(CN2CCC3(CC2c2ccc(-c4ccn[nH]4)cc2)CC(F)(F)C3)c2cc[nH]c12 (racemic) [Ex-51] | 4.2 nM | 
COc1cc(C)c2[nH]ccc2c1CN1CCC2(CC1c1ccc(C(F)F)cc1)CC(F)(F)C2 (racemic) [Ex-52] | 172 nM | 
COc1cc(C)c2[nH]ccc2c1CN1CCC2(CC1c1ccc(-c3nnn[nH]3)cc1)CC(F)(F)C2 (racemic) [Ex-54, (SR)-6-(4-(1H-tetrazol-5-yl)phenyl)-2,2-difluoro-7-((5-methoxy-7-methyl-1H-indol-4-yl)methyl)-7-azaspiro[3.5]nonane] | 2.2 nM | 
Cc1cc(C2CC2)c(CN2CCC3(CC2c2ccc(-c4nnn[nH]4)cc2)CC(F)(F)C3)c2cc[nH]c12 (racemic) [Ex-57, 6-(4-(1H-tetrazol-5-yl)phenyl)-7-((5-cyclopropyl-7-methyl-1H-indol-4-yl)methyl)-2,2-difluoro-7-azaspiro[3.5]nonane] | 5 nM | 
COc1cc(C)c2[nH]ccc2c1CN1CCC2(CC1c1ccc(-c3nnn[nH]3)nc1)CC(F)(F)C2 (racemic) [Ex-58, (SR)-6-(6-(1H-tetrazol-5-yl)pyridin-3-yl)-2,2-difluoro-7-((5-methoxy-7-methyl-1H-indol-4-yl)methyl)-7-azaspiro[3.5]nonane] | 3.8 nM | 
Cc1cc(C2CC2)c(CN2CCC3(CC2c2ccc(-c4nnn[nH]4)nc2)CC(F)(F)C3)c2cc[nH]c12 (racemic) [Ex-61, (SR)-6-(6-(1H-tetrazol-5-yl)pyridin-3-yl)-7-((5-cyclopropyl-7-methyl-1H-indol-4-yl)methyl)-2,2-difluoro-7-azaspiro[3.5]nonane] | 3.8 nM | 
COc1cc(C)c2[nH]ccc2c1CN1CCC2(C[C@H]1c1ccc(C(=O)O)cc1)CC(C)(F)C2 (single isomer, unassigned) [Ex-1] | 0.5 nM | 
COc1cc(C)c2[nH]ccc2c1CN1CCC2(C[C@@H]1c1ccc(C(=O)O)cc1)CC(C)(F)C2 (single isomer, unassigned) [Ex-2] | 6810 nM | 
COc1cc(C)c2[nH]ccc2c1CN1CCC2(C[C@H]1c1ccc(C(=O)O)cc1)CC(C)(F)C2 (single isomer, unassigned) [Ex-3] | 40.7 nM | 
COc1cc(C)c2[nH]ccc2c1CN1CCC2(C[C@@H]1c1ccc(C(=O)O)cc1)CC(C)(F)C2 (single isomer, unassigned) [Ex-4] | 461 nM | 
COc1cc(C)c2[nH]ccc2c1CN1CCC2(CC(F)C2)C[C@H]1c1ccc(C(=O)O)cc1 (single isomer, unassigned) [Ex-7] | 0.8 nM | 
COc1cc(C)c2[nH]ccc2c1CN1CCC2(CC(F)C2)C[C@@H]1c1ccc(C(=O)O)cc1 (single isomer, unassigned) [Ex-8] | 227 nM | 
COc1cc(C)c2[nH]ccc2c1CN1CCC2(CC(F)C2)C[C@H]1c1ccc(C(=O)O)cc1 (single isomer, unassigned) [Ex-9, 4-(2-fluoro-7-((5-methoxy-7-methyl-1H-indol-4-yl)methyl)-7-azaspiro[3.5]nonan-6-yl)benzoic acid] | 2.1 nM | 
COc1cc(C)c2[nH]ccc2c1CN1CCC2(CC(F)C2)C[C@@H]1c1ccc(C(=O)O)cc1 (single isomer, unassigned) [Ex-10] | 242 nM | 
COc1cc(C)c2[nH]ccc2c1CN1CCC2(C[C@@H]1c1ccc(C(=O)O)cc1)CC(C)(O)C2 (single isomer, unassigned) [Ex-14] | 10000 nM | 
COc1cc(C)c2[nH]ccc2c1CN1CCC2(C[C@H]1c1ccc(C(=O)O)cc1)CC(C)(O)C2 (single isomer, unassigned) [Ex-15] | 105 nM | 
COc1cc(C)c2[nH]ccc2c1CN1CCC2(CCC(F)(F)C2)C[C@@H]1c1ccc(C(=O)O)cc1 (single isomer, unassigned) [Ex-17] | 320 nM | 
COc1cc(C)c2[nH]ccc2c1CN1CCC2(CCC(F)(F)C2)C[C@H]1c1ccc(C(=O)O)cc1 (single isomer, unassigned) [Ex-18, 4-((5S,7S)-2,2-difluoro-8-((5-methoxy-7-methyl-1H-indol-4-yl)methyl)-8-azaspiro[4.5]decan-7-yl)benzoic acid or 4-((5R,7S)-2,2-difluoro-8-((5-methoxy-7-methyl-1H-indol-4-yl)methyl)-8-azaspiro[4.5]decan-7-yl)benzoic acid] | 3.4 nM | 

Compound | IC50 [1] | IC50 (hFactor-B TR-FRET Qualified IC50, displacement of labeled factor B ligand)
COc1cc(C)c2[nH]ccc2c1CN1CCC2(CCC(F)(F)C2)C[C@@H]1c1ccc(C(=O)O)cc1 (single isomer, unassigned) [Ex-19] | 1460 nM | 
COc1cc(C)c2[nH]ccc2c1CN1CCC2(CCC(F)(F)C2)C[C@H]1c1ccc(C(=O)O)cc1 (single isomer, unassigned) [Ex-20] | 7.6 nM | 
Cc1cc(C2CC2(F)F)c(CN2CCC3(C[C@H]2c2ccc(C(=O)O)cc2)CC(F)(F)C3)c2cc[nH]c12 (single isomer, unassigned) [Ex-23] | 8.9 nM | 
Cc1cc(C2CC2(F)F)c(CN2CCC3(C[C@H]2c2ccc(C(=O)O)cc2)CC(F)(F)C3)c2cc[nH]c12 (single isomer, unassigned) [Ex-24] | 31.4 nM | 
Cc1cc(C2CC2)c(CN2CCC3(C[C@H]2c2ccc(C4(O)COC4)cc2)CC(F)(F)C3)c2cc[nH]c12 (single isomer, unassigned) [Ex-25] | 4 nM | 
Cc1cc(C2CC2)c(CN2CCC3(C[C@@H]2c2ccc(C4(O)COC4)cc2)CC(F)(F)C3)c2cc[nH]c12 (single isomer, unassigned) [Ex-26] | > 400 nM | 
Cc1cc(C2CC2)c(CN2CCC3(C[C@H]2c2ccc(C(C)(C)O)cc2)CC(F)(F)C3)c2cc[nH]c12 (single isomer, unassigned) [Ex-27] | 6.9 nM | 
Cc1cc(C2CC2)c(CN2CCC3(C[C@@H]2c2ccc(C(C)(C)O)cc2)CC(F)(F)C3)c2cc[nH]c12 (single isomer, unassigned) [Ex-28] | > 400 nM | 
Cc1cc(C2CC2)c(CN2CCC3(C[C@H]2c2ccc(-c4ccn[nH]4)cc2)CC(F)(F)C3)c2cc[nH]c12 (single isomer, unassigned) [Ex-29] | 5.1 nM | 
Cc1cc(C2CC2)c(CN2CCC3(C[C@@H]2c2ccc(-c4ccn[nH]4)cc2)CC(F)(F)C3)c2cc[nH]c12 (single isomer, unassigned) [Ex-30] | > 100 nM | 
Cc1cc(C2CC2)c(CN2CCC3(C[C@H]2c2ccc(-n4cccn4)cc2)CC(F)(F)C3)c2cc[nH]c12 (single isomer, unassigned) [Ex-31] | 3.8 nM | 
Cc1cc(C2CC2)c(CN2CCC3(C[C@@H]2c2ccc(-n4cccn4)cc2)CC(F)(F)C3)c2cc[nH]c12 (single isomer, unassigned) [Ex-32] | > 400 nM | 
Cc1cc(C2CC2)c(CN2CCC3(C[C@H]2c2ccc(-c4nnn[nH]4)cc2)CC(F)(F)C3)c2cc[nH]c12 (single isomer, unassigned) [Ex-33] | 1.6 nM | 
Cc1cc(C2CC2)c(CN2CCC3(C[C@@H]2c2ccc(-c4nnn[nH]4)cc2)CC(F)(F)C3)c2cc[nH]c12 (single isomer, unassigned) [Ex-34] | 124 nM | 
COc1cc(C)c2[nH]ccc2c1CN1CCC2(C[C@H]1c1ccccc1)CC(F)(F)C2 (single isomer, unassigned) [Ex-37] | 11.2 nM | 
COc1cc(C)c2[nH]ccc2c1CN1CCC2(C[C@@H]1c1ccccc1)CC(F)(F)C2 (single isomer, unassigned) [Ex-38] | 5510 nM | 
COc1cc(C)c2[nH]ccc2c1CN1CCC2(C[C@H]1c1cnn(C)c1)CC(F)(F)C2 (single isomer, unassigned) [Ex-39] | 10.3 nM | 
COc1cc(C)c2[nH]ccc2c1CN1CCC2(C[C@@H]1c1cnn(C)c1)CC(F)(F)C2 (single isomer, unassigned) [Ex-40] | 864 nM | 
COc1cc(C)c2[nH]ccc2c1CN1CCC2(C[C@H]1c1cnn(C(F)F)c1)CC(F)(F)C2 (single isomer, unassigned) [Ex-41] | 9.6 nM | 
COc1cc(C)c2[nH]ccc2c1CN1CCC2(C[C@@H]1c1cnn(C(F)F)c1)CC(F)(F)C2 (single isomer, unassigned) [Ex-42] | 861 nM | 
COCCn1cc([C@H]2CC3(CCN2Cc2c(OC)cc(C)c4[nH]ccc24)CC(F)(F)C3)cn1 (single isomer, unassigned) [Ex-43] | 2790 nM | 
COCCn1cc([C@@H]2CC3(CCN2Cc2c(OC)cc(C)c4[nH]ccc24)CC(F)(F)C3)cn1 (single isomer, unassigned) [Ex-44] | 9.9 nM | 
COc1cc(C)c2[nH]ccc2c1CN1CCC2(C[C@H]1c1ccc(-c3nnn[nH]3)cc1)CC(F)(F)C2 (single isomer, unassigned) [Ex-55] | 0.6 nM | 
COc1cc(C)c2[nH]ccc2c1CN1CCC2(C[C@@H]1c1ccc(-c3nnn[nH]3)cc1)CC(F)(F)C2 (single isomer, unassigned) [Ex-56] | 58.6 nM | 
COc1cc(C)c2[nH]ccc2c1CN1CCC2(C[C@H]1c1ccc(-c3nnn[nH]3)nc1)CC(F)(F)C2 (single isomer, unassigned) [Ex-59] | 2.1 nM | 
